Reference: patent US6352958B1, “Cycloimido-substituted benzofused heterocyclic herbicides” (FMC Corporation, priority 1997, dated 2002)

What was measured:
Assay type in all cases: in vivo
[1] = test system: soybean (Glycine max var. Winchester); assay: Preemergence herbicidal activity, soybean; conditions: Rate of Application 0.3 Kg/Ha, examined after 12-17 days
[2] = test system: wheat (Triticum aestivum var. Lew); assay: Preemergence herbicidal activity, wheat; conditions: Rate of Application 0.3 Kg/Ha, examined after 12-17 days
[3] = test system: field corn (Zea mays var. Pioneer 3732); assay: Preemergence herbicidal activity, corn; conditions: Rate of Application 0.3 Kg/Ha, examined after 12-17 days
[4] = test system: velvetleaf (Abutilon theophrasti); assay: Preemergence herbicidal activity, velvetleaf; conditions: Rate of Application 0.3 Kg/Ha, examined after 12-17 days
[5] = test system: morningglory (Ipomea lacunosa or Ipomea hederacea); assay: Preemergence herbicidal activity, morningglory; conditions: Rate of Application 0.3 Kg/Ha, examined after 12-17 days
[6] = test system: common chickweed (Stellaria media); assay: Preemergence herbicidal activity, chickweed; conditions: Rate of Application 0.3 Kg/Ha, examined after 12-17 days
[7] = test system: common cocklebur (Xanthium strumarium L.); assay: Preemergence herbicidal activity, cocklebur; conditions: Rate of Application 0.3 Kg/Ha, examined after 12-17 days
[8] = test system: blackgrass (Aloepecurus myosuroides); assay: Preemergence herbicidal activity, blackgrass; conditions: Rate of Application 0.3 Kg/Ha, examined after 12-17 days
[9] = test system: green foxtail (Setaria viridis); assay: Preemergence herbicidal activity, green foxtail; conditions: Rate of Application 0.3 Kg/Ha, examined after 12-17 days
[10] = test system: Johnsongrass (Sorghum halepense); assay: Preemergence herbicidal activity, johnsongrass; conditions: Rate of Application 0.3 Kg/Ha, examined after 12-17 days
[11] = test system: soybean (Glycine max var. Winchester); assay: Postemergence herbicidal activity, soybean; conditions: rate of application 0.3 Kg/Ha, rated after 12-17 days
[12] = test system: wheat (Triticum aestivum var. Lew); assay: Postemergence herbicidal activity, wheat; conditions: rate of application 0.3 Kg/Ha, rated after 12-17 days
[13] = test system: field corn (Zea mays var. Pioneer 3732); assay: Postemergence herbicidal activity, corn; conditions: rate of application 0.3 Kg/Ha, rated after 12-17 days
[14] = test system: velvetleaf (Abutilon theophrasti); assay: Postemergence herbicidal activity, velvetleaf; conditions: rate of application 0.3 Kg/Ha, rated after 12-17 days
[15] = test system: morningglory (Ipomea lacunosa or Ipomea hederacea); assay: Postemergence herbicidal activity, morningglory; conditions: rate of application 0.3 Kg/Ha, rated after 12-17 days
[16] = test system: common chickweed (Stellaria media); assay: Postemergence herbicidal activity, chickweed; conditions: rate of application 0.3 Kg/Ha, rated after 12-17 days
[17] = test system: common cocklebur (Xanthium strumarium L.); assay: Postemergence herbicidal activity, cocklebur; conditions: rate of application 0.3 Kg/Ha, rated after 12-17 days
[18] = test system: blackgrass (Aloepecurus myosuroides); assay: Postemergence herbicidal activity, blackgrass; conditions: rate of application 0.3 Kg/Ha, rated after 12-17 days
[19] = test system: green foxtail (Setaria viridis); assay: Postemergence herbicidal activity, green foxtail; conditions: rate of application 0.3 Kg/Ha, rated after 12-17 days
[20] = test system: Johnsongrass (Sorghum halepense); assay: Postemergence herbicidal activity, johnsongrass; conditions: rate of application 0.3 Kg/Ha, rated after 12-17 days

CC(C)c1nc2c(-n3c(=O)cc(C(F)(F)F)n(C)c3=O)c(F)cc(Cl)c2[nH]1 [Compound 368]
95%: PREEMERGENCE HERBICIDAL ACTIVITY (% CONTROL) CRN [3] | PREEMERGENCE HERBICIDAL ACTIVITY (% CONTROL) ALOMY [8]
100%: PREEMERGENCE HERBICIDAL ACTIVITY (% CONTROL) SOY [1] | PREEMERGENCE HERBICIDAL ACTIVITY (% CONTROL) WHT [2] | PREEMERGENCE HERBICIDAL ACTIVITY (% CONTROL) ABUTH [4] | PREEMERGENCE HERBICIDAL ACTIVITY (% CONTROL) IPOSS [5] | PREEMERGENCE HERBICIDAL ACTIVITY (% CONTROL) STEME [6] | PREEMERGENCE HERBICIDAL ACTIVITY (% CONTROL) XANPE [7] | PREEMERGENCE HERBICIDAL ACTIVITY (% CONTROL) SETVI [9] | PREEMERGENCE HERBICIDAL ACTIVITY (% CONTROL) SORHA [10] | Postemergence herbicidal activity (% control) SOY [11] | Postemergence herbicidal activity (% control) WHT [12] | Postemergence herbicidal activity (% control) CRN [13] | Postemergence herbicidal activity (% control) ABUTH [14] | Postemergence herbicidal activity (% control) IPOSS [15] | Postemergence herbicidal activity (% control) STEME [16] | Postemergence herbicidal activity (% control) XANPE [17] | Postemergence herbicidal activity (% control) ALOMY [18] | Postemergence herbicidal activity (% control) SETVI [19] | Postemergence herbicidal activity (% control) SORHA [20]

Cc1nc2c(-n3c(=O)cc(C(F)(F)F)n(C)c3=O)c(F)cc(Br)c2o1 [Compound 16]
70%: PREEMERGENCE HERBICIDAL ACTIVITY (% CONTROL) WHT [2] | Postemergence herbicidal activity (% control) STEME [16] | Postemergence herbicidal activity (% control) ALOMY [18]
95%: PREEMERGENCE HERBICIDAL ACTIVITY (% CONTROL) SORHA [10] | Postemergence herbicidal activity (% control) SOY [11] | Postemergence herbicidal activity (% control) XANPE [17]
60%: Postemergence herbicidal activity (% control) WHT [12]
100%: PREEMERGENCE HERBICIDAL ACTIVITY (% CONTROL) SOY [1] | PREEMERGENCE HERBICIDAL ACTIVITY (% CONTROL) ABUTH [4] | PREEMERGENCE HERBICIDAL ACTIVITY (% CONTROL) IPOSS [5] | PREEMERGENCE HERBICIDAL ACTIVITY (% CONTROL) STEME [6] | PREEMERGENCE HERBICIDAL ACTIVITY (% CONTROL) SETVI [9] | Postemergence herbicidal activity (% control) ABUTH [14] | Postemergence herbicidal activity (% control) IPOSS [15]
90%: PREEMERGENCE HERBICIDAL ACTIVITY (% CONTROL) CRN [3] | PREEMERGENCE HERBICIDAL ACTIVITY (% CONTROL) XANPE [7]
80%: PREEMERGENCE HERBICIDAL ACTIVITY (% CONTROL) ALOMY [8] | Postemergence herbicidal activity (% control) CRN [13] | Postemergence herbicidal activity (% control) SETVI [19] | Postemergence herbicidal activity (% control) SORHA [20]

Cn1c(C(F)(F)F)cc(=O)n(-c2c(F)cc(Br)c3oc(NS(C)(=O)=O)nc23)c1=O [Compound 108]
30%: PREEMERGENCE HERBICIDAL ACTIVITY (% CONTROL) SORHA [10]
50%: PREEMERGENCE HERBICIDAL ACTIVITY (% CONTROL) IPOSS [5] | PREEMERGENCE HERBICIDAL ACTIVITY (% CONTROL) ALOMY [8] | PREEMERGENCE HERBICIDAL ACTIVITY (% CONTROL) SETVI [9] | Postemergence herbicidal activity (% control) SOY [11]
40%: PREEMERGENCE HERBICIDAL ACTIVITY (% CONTROL) STEME [6]
0%: PREEMERGENCE HERBICIDAL ACTIVITY (% CONTROL) SOY [1] | PREEMERGENCE HERBICIDAL ACTIVITY (% CONTROL) WHT [2] | Postemergence herbicidal activity (% control) STEME [16]
10%: PREEMERGENCE HERBICIDAL ACTIVITY (% CONTROL) CRN [3] | PREEMERGENCE HERBICIDAL ACTIVITY (% CONTROL) XANPE [7] | Postemergence herbicidal activity (% control) XANPE [17] | Postemergence herbicidal activity (% control) ALOMY [18]
70%: PREEMERGENCE HERBICIDAL ACTIVITY (% CONTROL) ABUTH [4] | Postemergence herbicidal activity (% control) SETVI [19]
20%: Postemergence herbicidal activity (% control) WHT [12] | Postemergence herbicidal activity (% control) ABUTH [14] | Postemergence herbicidal activity (% control) SORHA [20]
60%: Postemergence herbicidal activity (% control) CRN [13] | Postemergence herbicidal activity (% control) IPOSS [15]

CCOC(=O)c1cc2c(-n3c(=O)cc(C(F)(F)F)n(C)c3=O)c(F)cc(Cl)c2n1C [Compound 522]
80%: PREEMERGENCE HERBICIDAL ACTIVITY (% CONTROL) CRN [3]
90%: PREEMERGENCE HERBICIDAL ACTIVITY (% CONTROL) SOY [1] | Postemergence herbicidal activity (% control) SOY [11] | Postemergence herbicidal activity (% control) CRN [13]
50%: PREEMERGENCE HERBICIDAL ACTIVITY (% CONTROL) XANPE [7] | Postemergence herbicidal activity (% control) ALOMY [18]
40%: PREEMERGENCE HERBICIDAL ACTIVITY (% CONTROL) WHT [2]
45%: Postemergence herbicidal activity (% control) WHT [12]
75%: PREEMERGENCE HERBICIDAL ACTIVITY (% CONTROL) ALOMY [8]
100%: PREEMERGENCE HERBICIDAL ACTIVITY (% CONTROL) ABUTH [4] | PREEMERGENCE HERBICIDAL ACTIVITY (% CONTROL) IPOSS [5] | PREEMERGENCE HERBICIDAL ACTIVITY (% CONTROL) STEME [6] | PREEMERGENCE HERBICIDAL ACTIVITY (% CONTROL) SETVI [9] | PREEMERGENCE HERBICIDAL ACTIVITY (% CONTROL) SORHA [10] | Postemergence herbicidal activity (% control) ABUTH [14] | Postemergence herbicidal activity (% control) IPOSS [15] | Postemergence herbicidal activity (% control) STEME [16] | Postemergence herbicidal activity (% control) XANPE [17] | Postemergence herbicidal activity (% control) SETVI [19] | Postemergence herbicidal activity (% control) SORHA [20]
